Data reported in US11066369B2, “N-(pyridin-2-yl)pyridine-sulfonamide derivatives and their use in the treatment of disease” (Novartis AG, priority 2016, dated 2021).
Where a name gives a salt, the structure may show the parent alone. Read-outs that look alike come from different tables or passages of the source.

Target: T1, horseradish peroxidase (HRP) tagged delF508-CFTR (Homo sapiens, UniProt P13569, DEL508-508)
T1 construct: expressed in transfected cells
Assay: Measurement of delF508-CFTR-HRP surface expression in CFBE41o- cells;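 for DelF508-CFTR-HRP Amax %: percent efficacy relative to reference corrector lumacaftor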
Assay type: cell-based
Details: CFBE41o- cells; for Emax: read-out: DelF508-CFTR-HRP Amax %; for EC50: read-out: DelF508-CFTR-HRP EC50
Text: Measurement of delF508-CFTR-HRP Surface Expression in CFBE41o-Cells
This assay quantifies the cell surface expressions of the mutant CFTR channel using an extracellular HRP tag.
A cellular assay was developed to measure surface expression of horseradish peroxidase (HRP) tagged delF508-CFTR in the human bronchial epithelial immortalized CFBE41o-cell line (Phuan, P. W., et al, (2014) Molecular Pharmacology 86:42-51). Specifically, the HRP sequence was inserted into the fourth extracellular loop of delF508-CFTR and stably expressed in CFBE41o-cells. Cells were seeded in 384 well plate at a density of 5000 cells/well and incubated at 37° C. for 12 to 24 hours in medium (Gibco MEM #11095, 10% FBS, 10 mM HEPES, […], 200 μg/mL G418, 3 μg/mL Puromycin). The delF508-CFTR-HRP expression was induced with 500 ng/mL doxycycline (Sigma D-9891, dissolved in H2O and sterile filtered) in medium and the cells were incubated at 37° C. for 48h. Old medium was removed and fresh medium was added containing 500 ng/mL doxycycline and unknown test compound at required test concentration in DMSO, not exceeding 0.5% final DMSO concentration. The highest concentration tested was 10 μM with a 10-point concentration response curve using a 3-fold dilution. After addition of compounds, the cells were incubated for 24h at 37° C. On the final day, cells were washed four times in PBS containing 1 mM MgCl2 and 0.1 mM CaCl2. HRP-Substrate (SuperSignal ELISA Pico, Fisher #37069) 20 μl/well was added and the luminescence signal was determined (Viewlux, Perkin Elmer). Light was emitted upon addition of exogenous HRP-Substrate only when delF508-CFTR-HRP reached the cell surface and the HRP tag was accessible to the HRP-Substrate (note: HRP-Substrate cannot cross the lipid bilayer to reach delF508-CFTR-HRP misfolded within the cell).
The median activity for the lowest concentration of the compounds on each assay plate was calculated and this value was used to normalize the signal for each well on the respective plate. Three replicates at each concentrations for every compound were run to determine one EC50. The median value was determined and used to calculate compound activities as described below. Effective half maximal values (EC50) were calculated for each compound by performing logistic regression on measured dose-response data points using the equation:
[formula] where “Y” is the observed activity, “Bottom” is the lowest observed value, “Top” is the highest observed value, and the “Hill coefficient” gives the largest absolute value of the slope. The curve fitting is carried out by a curve fitting program implemented at GNF using Matlab (Mathworks).
The dose response curves also were used to calculate Fold Change (FC) using the equation: […]
Compound efficacy relative to the reference compound 3-(6-(1-(2,2-difluorobenzo[d][1,3]dioxol-5-yl)cyclopropane-1-carboxamido)-3-methylpyridin-2-yl)benzoic acid was determined using the following formula: […]

[1] = delF508-CFTR-HRP surface expression
[2] = mean of at least two replicates

T1 sequence (P13569 with tags, fused parts or gaps DEL508-508): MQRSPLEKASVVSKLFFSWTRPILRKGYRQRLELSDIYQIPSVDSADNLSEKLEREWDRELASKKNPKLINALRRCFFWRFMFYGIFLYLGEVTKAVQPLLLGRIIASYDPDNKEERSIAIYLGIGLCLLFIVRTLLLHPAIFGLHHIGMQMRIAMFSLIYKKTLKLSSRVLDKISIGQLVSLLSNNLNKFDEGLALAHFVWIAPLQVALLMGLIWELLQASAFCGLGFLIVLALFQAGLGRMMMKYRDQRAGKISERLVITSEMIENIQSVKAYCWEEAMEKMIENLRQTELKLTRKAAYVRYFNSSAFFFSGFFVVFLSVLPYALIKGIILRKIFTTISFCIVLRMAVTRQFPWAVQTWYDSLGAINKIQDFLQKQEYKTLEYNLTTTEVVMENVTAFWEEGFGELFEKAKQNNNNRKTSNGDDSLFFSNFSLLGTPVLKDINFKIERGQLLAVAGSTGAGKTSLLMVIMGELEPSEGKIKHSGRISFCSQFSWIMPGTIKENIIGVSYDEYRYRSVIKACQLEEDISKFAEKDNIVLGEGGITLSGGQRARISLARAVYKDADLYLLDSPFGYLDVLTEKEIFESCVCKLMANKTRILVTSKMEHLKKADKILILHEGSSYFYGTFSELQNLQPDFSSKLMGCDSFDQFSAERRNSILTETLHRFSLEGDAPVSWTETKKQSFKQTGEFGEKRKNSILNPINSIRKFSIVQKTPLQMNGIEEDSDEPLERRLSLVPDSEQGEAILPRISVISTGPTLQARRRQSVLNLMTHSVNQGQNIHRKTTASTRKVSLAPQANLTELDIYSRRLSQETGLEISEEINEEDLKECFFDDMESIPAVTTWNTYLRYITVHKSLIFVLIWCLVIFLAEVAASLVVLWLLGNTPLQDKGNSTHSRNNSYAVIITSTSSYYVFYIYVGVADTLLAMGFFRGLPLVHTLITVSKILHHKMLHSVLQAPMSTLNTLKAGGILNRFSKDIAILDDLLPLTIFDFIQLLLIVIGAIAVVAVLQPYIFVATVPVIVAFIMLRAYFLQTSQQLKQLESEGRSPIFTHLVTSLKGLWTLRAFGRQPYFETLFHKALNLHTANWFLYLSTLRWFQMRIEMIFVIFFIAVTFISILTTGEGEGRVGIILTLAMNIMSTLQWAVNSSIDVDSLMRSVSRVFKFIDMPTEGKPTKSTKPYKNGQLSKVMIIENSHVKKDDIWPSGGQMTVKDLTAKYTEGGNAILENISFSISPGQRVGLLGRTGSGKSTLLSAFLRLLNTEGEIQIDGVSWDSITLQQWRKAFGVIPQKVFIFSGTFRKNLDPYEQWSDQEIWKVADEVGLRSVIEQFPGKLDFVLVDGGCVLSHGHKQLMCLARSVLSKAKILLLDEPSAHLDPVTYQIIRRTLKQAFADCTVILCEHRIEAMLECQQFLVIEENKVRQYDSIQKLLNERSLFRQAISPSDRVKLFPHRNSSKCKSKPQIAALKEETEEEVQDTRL

Row | Compound | Emax [1] [%] | EC50 [1] [nM] | EC50 [2] [nM] | Emax (surface expression Amax) [%]
1 | Cc1ccc(F)cc1-c1nc(NS(=O)(=O)c2cccc(N3C[C@@H]4CC[C@H]3CN4)n2)ccc1C(F)(F)F [Example 200, 6-((1S,4S)-2,5-diazabicyclo[2.2.2]octan-2-yl)-N-(6-(5-fluoro-2-methylphenyl)-5-(trifluoromethyl)pyridin-2-yl)pyridine-2-sulfonamide Hydrochloride] | 553 | 3170 |  | 
2 | Cc1ccccc1-c1nc(NS(=O)(=O)c2cccc(N3CCNC[C@@H]3C(=O)O)n2)ccc1C(F)(F)F [Example 353, (2R)-1-(6-{[6-(2-methylphenyl)-5-(trifluoromethyl)pyridin-2-yl]sulfamoyl}pyridin-2-yl)piperazine-2-carboxylic Acid] | 118 | 2800 |  | 
3 | CC(C)c1ccccc1-c1nc(NS(=O)(=O)c2cccc(N3CCCC(C)(C(=O)O)C3)n2)ccc1C(F)(F)F (stereo not drawn) [Example 377, 1-(6-(N-(6-(2-isopropylphenyl)-5-(trifluoromethyl)pyridin-2-yl)sulfamoyl)pyridin-2-yl)-3-methylpiperidine-3-carboxylic Acid] |  | 738 |  | 
4 | COc1cc(NS(=O)(=O)c2cccc(N3CC(C)(O)C3)n2)nc(-c2c(C)cccc2C)c1 [Example 206, N-(6-(2,6-dimethylphenyl)-4-methoxypyridin-2-yl)-6-(3-hydroxy-3-methylazetidin-1-yl)pyridine-2-sulfonamide] | 95.9 | 3700 |  | 
5 | Cc1ccccc1-c1nc(NS(=O)(=O)c2cccc(N3CCN4C[C@@H](F)C[C@H]4C3)n2)ccc1C(F)(F)F [Example 137, 6-((7S,8aS)-7-fluorohexahydropyrrolo[1,2-a]pyrazin-2(1H)-yl)-N-(6-(o-tolyl)-5-(trifluoromethyl)pyridin-2-yl)pyridine-2-sulfonamide] | 854 | 1350 |  | 
6 | Cc1ccc(C(F)(F)F)cc1-c1nc(NS(=O)(=O)c2cccc(N3CCN(C(=O)OC(C)(C)C)CC3)n2)ccc1Cl [Example 168, tert-butyl 4-(6-(N-(5-chloro-6-(2-methyl-5-(trifluoromethyl)phenyl)pyridin-2-yl)sulfamoyl)pyridin-2-yl)piperazine-1-carboxylate] | 271 | 626 |  | 
7 | Cc1ccc(F)cc1-c1nc(NS(=O)(=O)c2cccc(N3CCC34CNC4)n2)ccc1Cl [Example 310, N-(5-chloro-6-(5-fluoro-2-methylphenyl)pyridin-2-yl)-6-(1,6-diazaspiro[3.3]heptan-1-yl)pyridine-2-sulfonamide] | 137 | 4980 |  | 
8 | CC(C)c1ccccc1-c1nc(NS(=O)(=O)c2cccc(N[C@H]3CCC[C@H](C(=O)O)C3)n2)ccc1C(F)(F)F [Example 418, (1S,3S)-3-((6-(N-(6-(2-isopropylphenyl)-5-(trifluoromethyl)pyridin-2-yl)sulfamoyl)pyridin-2-yl)amino)cyclohexanecarboxylic Acid] |  |  | 1220 | 644
9 | Cc1ccccc1-c1nc(NS(=O)(=O)c2cccc(N3CCN(C(=O)OC(C)(C)C)[C@@H](C(=O)O)C3)n2)ccc1C(F)(F)F [Example 338, (2R)-1-[(tert-butoxy)carbonyl]-4-(6-{[6-(2-methylphenyl)-5-(trifluoromethyl)pyridin-2-yl]sulfamoyl}pyridin-2-yl)piperazine-2-carboxylic Acid] | 542 | 2810 |  | 
10 | Cc1cccc(C)c1-c1ccc(Cl)c(NS(=O)(=O)c2cccc(N)n2)n1 [Example 96, 6-amino-N-(3-chloro-6-(2,6-dimethylphenyl)pyridin-2-yl)pyridine-2-sulfonamide] | 10 | 4330 |  | 
11 | Cc1ccccc1-c1nc(NS(=O)(=O)c2cccc(N3CCO[C@@H](C(=O)O)C3)n2)ccc1C(F)(F)F [Example 339, (2R)-4-(6-{[6-(2-methylphenyl)-5-(trifluoromethyl)pyridin-2-yl]sulfamoyl}pyridin-2-yl)morpholine-2-carboxylic Acid] | 122 | 2310 |  | 
12 | Nc1cccc(S(=O)(=O)Nc2ccc(Cl)c(-c3c(F)cccc3Cl)n2)n1 [Example 39, 6-amino-N-(5-chloro-6-(2-chloro-6-fluorophenyl)pyridin-2-yl)pyridine-2-sulfonamide] | 374 | 1900 |  | 
13 | Cc1ccccc1-c1nc(NS(=O)(=O)c2cccc(N3CCN[C@H](C(=O)O)C3)n2)ccc1C(F)(F)F [Example 335, (2S)-4-(6-{[6-(2-methylphenyl)-5-(trifluoromethyl)pyridin-2-yl]sulfamoyl}pyridin-2-yl)piperazine-2-carboxylic Acid] | 71.3 | 3140 |  | 
14 | Cc1ccccc1-c1nc(NS(=O)(=O)c2cccc(N[C@@H]3C[C@@]4(C(=O)O)CC[C@@H]3O4)n2)ccc1C(F)(F)F (racemic) [Example 395, rac-(1RS,3RS,4SR)-3-((6-(N-(6-(o-tolyl)-5-(trifluoromethyl)pyridin-2-yl)sulfamoyl)pyridin-2-yl)amino)-7-oxabicyclo[2.2.1]heptane-1-carboxylic Acid] |  |  | 3650 | 64.3
15 | O=S(=O)(Nc1ccc(C(F)(F)F)c(-c2cccc(F)c2Cl)n1)c1cccc(N2CCNCC2)n1 [Example 155, N-(6-(2-chloro-3-fluorophenyl)-5-(trifluoromethyl)pyridin-2-yl)-6-(piperazin-1-yl)pyridine-2-sulfonamide hydrochloride] | 196 | 4400 |  | 
16 | CC1(C(=O)O)CCCN(c2cccc(S(=O)(=O)Nc3ccc(C(F)(F)F)c(-c4ccccc4Cl)n3)n2)C1 (stereo not drawn) [Example 399, 1-(6-(N-(6-(2-chlorophenyl)-5-(trifluoromethyl)pyridin-2-yl)sulfamoyl)pyridin-2-yl)-3-methylpiperidine-3-carboxylic Acid] |  |  | 2090 | 728
17 | CCC1(C(=O)O)CCCN(c2cccc(S(=O)(=O)Nc3ccc(Cl)c(-c4c(C)cccc4C)n3)n2)C1 (stereo not drawn) [Example 453, 1-(6-(N-(5-chloro-6-(2,6-dimethylphenyl)pyridin-2-yl)sulfamoyl)pyridin-2-yl)-3-ethylpiperidine-3-carboxylic Acid] |  |  | 1590 | 
18 | CCOC(=O)C1(C)CCN(c2cccc(S(=O)(=O)Nc3ccc(C(F)(F)F)c(-c4c(C)cccc4C)n3)n2)CC1 [Example 266, ethyl 1-(6-{[6-(2,6-dimethylphenyl)-5-(trifluoromethyl)pyridin-2-yl]sulfamoyl}pyridin-2-yl)-4-methylpiperidine-4-carboxylate] |  | 1280 |  | 
19 | Cc1ccccc1-c1nc(NS(=O)(=O)c2cccc(N3CCC34CNC4)n2)ccc1C(F)(F)F [Example 313, 6-(1,6-diazaspiro[3.3]heptan-1-yl)-N-(6-(o-tolyl)-5-(trifluoromethyl)pyridin-2-yl)pyridine-2-sulfonamide] | 128 | 4570 |  | 
20 | Cc1cccc(C)c1-c1nc(NS(=O)(=O)c2cccc(N3CCC[C@@](C)(C(=O)O)C3)n2)ccc1C(F)(F)F [Example 465, (R)-1-(6-(N-(6-(2,6-dimethylphenyl)-5-(trifluoromethyl)pyridin-2-yl)sulfamoyl)pyridin-2-yl)-3-methylpiperidine-3-carboxylic Acid] |  |  | 1730 | 
21 | Cc1cccc(C(F)(F)F)c1-c1nc(NS(=O)(=O)c2cccc(N)n2)ccc1Cl [Example 53, 6-amino-N-(5-chloro-6-(2-methyl-6-(trifluoromethyl)phenyl)pyridin-2-yl)pyridine-2-sulfonamide] | 325 | 1840 |  | 
22 | CC(C)COc1ccccc1-c1nc(NS(=O)(=O)c2cccc(N3CCCC(C)(C(=O)O)C3)n2)ccc1Cl (stereo not drawn) [Example 400, 1-(6-(N-(5-chloro-6-(2-isobutoxyphenyl)pyridin-2-yl)sulfamoyl)pyridin-2-yl)-3-methylpiperidine-3-carboxylic Acid] |  |  | 1100 | 672
23 | Cc1ccccc1-c1nc(NS(=O)(=O)c2cccc(N3CC(C(=O)O)C3)n2)ccc1C(F)(F)F [Example 330, 1-(6-(N-(6-(o-tolyl)-5-(trifluoromethyl)pyridin-2-yl)sulfamoyl)pyridin-2-yl)azetidine-3-carboxylic Acid] | 9.1 | 2300 |  | 
